Source: patent US10040781B2, “Tank-binding kinase inhibitor compounds” (Gilead Sciences, Inc., priority 2014, dated 2018)
pIC50: −log10 of the molar value. Counter-ions that a name gives are not always drawn. Like-named read-outs stand apart in the source and are kept apart here.

Key:
hJAK2 = hJAK2 (Homo sapiens (Human), UniProt O60674); experiment: hJAK2 LANCE TR-FRET enzymatic assay; type: biochemical; settings: read-out: JAK2 IC50
TBK1 = TBK1 (Homo sapiens (Human), UniProt Q9UHD2); experiment: TBK1 TR-FRET enzymatic assay;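 also: phosphorylation of a biotinylated Ser/Thr peptide by purified full-length recombinant TBK1, read by TR-FRET after 240 min at 25 °C, IC50 is the geometric mean of at least four runs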
IKKε = IKKε (Homo sapiens (Human), UniProt Q14164); experiment: IKKε TR-FRET enzymatic assay; type: biochemical; settings: read-out: IKKe IC50
[1] = TR-FRET, 2×Km ATP, geometric mean of minimum four determinations

Chain of IKKε (Q14164 whole entry): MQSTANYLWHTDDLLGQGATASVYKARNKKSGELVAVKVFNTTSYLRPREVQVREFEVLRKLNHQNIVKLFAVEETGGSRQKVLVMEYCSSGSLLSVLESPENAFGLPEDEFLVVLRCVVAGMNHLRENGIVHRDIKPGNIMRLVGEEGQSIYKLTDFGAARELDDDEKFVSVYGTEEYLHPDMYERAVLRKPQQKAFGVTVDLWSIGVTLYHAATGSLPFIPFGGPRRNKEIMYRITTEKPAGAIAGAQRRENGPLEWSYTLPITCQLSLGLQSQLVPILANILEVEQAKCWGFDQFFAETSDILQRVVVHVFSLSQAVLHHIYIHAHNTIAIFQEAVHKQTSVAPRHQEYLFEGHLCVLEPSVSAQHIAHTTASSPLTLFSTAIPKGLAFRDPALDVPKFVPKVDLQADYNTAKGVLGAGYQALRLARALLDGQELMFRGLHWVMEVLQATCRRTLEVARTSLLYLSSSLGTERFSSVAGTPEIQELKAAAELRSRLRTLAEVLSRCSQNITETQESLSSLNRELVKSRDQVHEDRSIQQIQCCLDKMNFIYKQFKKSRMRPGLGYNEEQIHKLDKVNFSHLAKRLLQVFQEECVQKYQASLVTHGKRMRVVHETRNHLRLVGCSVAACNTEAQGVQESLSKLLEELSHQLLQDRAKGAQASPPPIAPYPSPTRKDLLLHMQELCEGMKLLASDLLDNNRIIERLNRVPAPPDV
Chain of TBK1 (Q9UHD2 whole entry): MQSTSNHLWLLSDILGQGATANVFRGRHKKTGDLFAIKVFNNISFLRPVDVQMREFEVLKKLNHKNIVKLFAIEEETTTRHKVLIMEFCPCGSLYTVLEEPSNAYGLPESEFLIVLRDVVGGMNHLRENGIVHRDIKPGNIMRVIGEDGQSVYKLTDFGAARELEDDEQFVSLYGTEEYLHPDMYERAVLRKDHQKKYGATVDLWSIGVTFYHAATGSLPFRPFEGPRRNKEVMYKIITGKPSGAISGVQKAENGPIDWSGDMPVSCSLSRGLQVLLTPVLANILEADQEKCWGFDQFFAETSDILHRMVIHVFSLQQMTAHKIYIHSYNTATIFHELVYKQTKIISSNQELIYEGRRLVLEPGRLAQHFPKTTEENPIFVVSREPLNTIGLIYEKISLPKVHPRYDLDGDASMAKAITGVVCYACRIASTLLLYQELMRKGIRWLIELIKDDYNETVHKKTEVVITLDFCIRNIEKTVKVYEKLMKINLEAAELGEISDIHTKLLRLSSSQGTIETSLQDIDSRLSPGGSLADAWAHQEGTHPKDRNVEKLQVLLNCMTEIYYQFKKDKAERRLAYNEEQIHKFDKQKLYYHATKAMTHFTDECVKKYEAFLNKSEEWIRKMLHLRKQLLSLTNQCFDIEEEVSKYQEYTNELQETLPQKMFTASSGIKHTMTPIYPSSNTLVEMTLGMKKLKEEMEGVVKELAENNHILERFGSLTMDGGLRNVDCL
Chain of hJAK2 (O60674 whole entry): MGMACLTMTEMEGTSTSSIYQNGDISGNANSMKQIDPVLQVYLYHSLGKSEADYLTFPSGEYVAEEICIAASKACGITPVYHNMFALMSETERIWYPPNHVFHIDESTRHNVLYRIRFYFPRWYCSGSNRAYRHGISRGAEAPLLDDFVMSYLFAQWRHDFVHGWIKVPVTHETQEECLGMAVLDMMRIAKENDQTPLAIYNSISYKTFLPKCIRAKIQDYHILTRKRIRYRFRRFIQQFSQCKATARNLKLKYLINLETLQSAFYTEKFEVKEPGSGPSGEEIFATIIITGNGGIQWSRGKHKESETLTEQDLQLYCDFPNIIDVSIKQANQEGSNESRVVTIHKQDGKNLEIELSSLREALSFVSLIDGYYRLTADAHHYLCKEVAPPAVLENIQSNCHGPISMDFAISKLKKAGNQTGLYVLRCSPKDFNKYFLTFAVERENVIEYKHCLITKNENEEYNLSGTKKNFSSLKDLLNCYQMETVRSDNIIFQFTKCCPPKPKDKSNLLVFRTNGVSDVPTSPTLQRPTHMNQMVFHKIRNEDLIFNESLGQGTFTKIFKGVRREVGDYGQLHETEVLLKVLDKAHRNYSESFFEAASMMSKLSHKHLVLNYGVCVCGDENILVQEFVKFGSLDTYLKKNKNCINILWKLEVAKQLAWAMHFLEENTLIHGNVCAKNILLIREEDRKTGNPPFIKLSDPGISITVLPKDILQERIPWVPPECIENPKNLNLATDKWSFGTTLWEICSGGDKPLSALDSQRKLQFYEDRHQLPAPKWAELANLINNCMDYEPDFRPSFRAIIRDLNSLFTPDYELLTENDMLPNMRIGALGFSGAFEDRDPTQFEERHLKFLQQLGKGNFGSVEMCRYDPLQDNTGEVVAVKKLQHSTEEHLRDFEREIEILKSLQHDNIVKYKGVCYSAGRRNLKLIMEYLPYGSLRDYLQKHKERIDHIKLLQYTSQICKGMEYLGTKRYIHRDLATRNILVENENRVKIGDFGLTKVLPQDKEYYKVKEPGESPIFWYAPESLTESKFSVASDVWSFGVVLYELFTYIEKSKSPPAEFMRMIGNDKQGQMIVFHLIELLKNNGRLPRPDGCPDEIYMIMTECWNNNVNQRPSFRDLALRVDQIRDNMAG

Compound | pIC50 (hJAK2) | pIC50 (TBK1) | pIC50 (IKKε; [1]) | pIC50 (IKKε)
C[C@H]1CN(C2COC2)CCN1c1ccc(Nc2ncnc(-c3ccc(O[C@H]4CCN(C(=O)c5cnc[nH]5)CC4(F)F)c(C#N)c3)n2)cc1 [Example 259, 2-(((S)-3,3-difluoro-1-(1H-imidazole-5-carbonyl)piperidin-4-yl)oxy)-5-(4-((4-((S)-2-methyl-4-(oxetan-3-yl)piperazin-1-yl)phenyl)amino)-1,3,5-triazin-2-yl)benzonitrile] | 7.18 | 8.52 |  | 9.00
CC1(O)CCN(c2ccc(Nc3ncnc(-c4ccc(OC5CCOCC5)c(C#N)c4)n3)cc2)C1 (stereo not drawn) [Example 108, 5-(4-((4-(3-hydroxy-3-methylpyrrolidin-1-yl)phenyl)amino)-1,3,5-triazin-2-yl)-2-((tetrahydro-2H-pyran-4-yl)oxy)benzonitrile] | < 6.00 | 8.52 |  | 8.22
N#Cc1cc(-c2ncnc(Nc3ccc(N4CCN(C5COC5)CC4)cc3)n2)ccc1O[C@H]1CCC(=O)NC1 [Example 114, (S)-5-(4-((4-(4-(oxetan-3-yl)piperazin-1-yl)phenyl)amino)-1,3,5-triazin-2-yl)-2-((6-oxopiperidin-3-yl)oxy)benzonitrile] | 6.76 | 7.70 |  | 7.25
CS(=O)(=O)c1ccc(-c2ncnc(Nc3ccc(N4CCN(C5COC5)CC4)cc3)n2)cc1 [Example 484, 4-(4-(methylsulfonyl)phenyl)-N-(4-(4-(oxetan-3-yl)piperazin-1-yl)phenyl)-1,3,5-triazin-2-amine, trifluoroacetic acid salt] | 6.08 | 6.00 | ≤ 6.00 | 
C[C@H]1CN(C2COC2)CCN1c1ccc(Nc2ncnc(-c3ccc(O[C@H]4CCN(C(=O)CO)C[C@H]4F)c(C#N)c3)n2)cc1 [Example 244, 2-(((3R,4S)-3-fluoro-1-(2-hydroxyacetyl)piperidin-4-yl)oxy)-5-(4-((4-((S)-2-methyl-4-(oxetan-3-yl)piperazin-1-yl)phenyl)amino)-1,3,5-triazin-2-yl)benzonitrile] | 6.72 | 8.52 |  | 9.00
COC1CCC(Oc2ccc(-c3ncnc(Nc4ccc(N5CCN(C6COC6)CC5)cc4)n3)cc2C#N)CC1 (stereo not drawn) [Example 122, 2-((4-methoxycyclohexyl)oxy)-5-(4-((4-(4-(oxetan-3-yl)piperazin-1-yl)phenyl)amino)-1,3,5-triazin-2-yl)benzonitrile] | 6.40 | 7.82 |  | 7.82
N#Cc1cc(-c2ncnc(Nc3ccc(N4CCN(C5COC5)CC4)cc3)n2)ccc1O[C@H]1CCNC[C@H]1F [Example 239, 2-(((3R,4S)-3-fluoropiperidin-4-yl)oxy)-5-(4-((4-(4-(oxetan-3-yl)piperazin-1-yl)phenyl)amino)-1,3,5-triazin-2-yl)benzonitrile] | 6.39 | 8.10 |  | 7.23
CC(C)[C@H](Oc1ccc(-c2ncnc(Nc3ccc(N4CCN(C5COC5)CC4)cc3)n2)cc1C#N)C(N)=O [Example 286, (S)-2-(2-cyano-4-(4-((4-(4-(oxetan-3-yl)piperazin-1-yl)phenyl)amino)-1,3,5-triazin-2-yl)phenoxy)-3-methylbutanamide] | ≤ 6.00 | 7.03 |  | 6.63
N#Cc1cc(-c2ncnc(Nc3cc(F)c(N4CCN(C5COC5)CC4)c(F)c3)n2)ccc1OC1CCOCC1 [Example 74, 5-(4-((3,5-difluoro-4-(4-(oxetan-3-yl)piperazin-1-yl)phenyl)amino)-1,3,5-triazin-2-yl)-2-((tetrahydro-2H-pyran-4-yl)oxy)benzonitrile] | < 6.00 | 8.52 |  | 7.92

Next, values leading:

pIC50 (hJAK2) | pIC50 (TBK1) | pIC50 (IKKε; [1]) | pIC50 (IKKε) | Compound
≤ 6.00 | 7.16 | 7.05 |  | Cn1ccc(C(=O)N2CCC(Oc3ccc(-c4ncnc(Nc5ccc(N6CCN(C7COC7)CC6)cc5)n4)cc3C#N)CC2)cc1=O [Example 595, 2-((1-(1-methyl-2-oxo-1,2-dihydropyridine-4-carbonyl)piperidin-4-yl)oxy)-5-(4-((4-(4-(oxetan-3-yl)piperazin-1-yl)phenyl)amino)-1,3,5-triazin-2-yl)benzonitrile]
6.15 | 8.22 | 7.85 |  | C[C@@H](O)CC(=O)N1CC[C@H](Oc2ccc(-c3ncnc(Nc4ccc(N5CCN(C6COC6)CC5)cc4)n3)cc2C#N)[C@H](F)C1 [Example 471, 2-(((3R,4S)-3-fluoro-1-((R)-3-hydroxybutanoyl)piperidin-4-yl)oxy)-5-(4-((4-(4-(oxetan-3-yl)piperazin-1-yl)phenyl)amino)-1,3,5-triazin-2-yl)benzonitrile]
≤ 6.00 | 7.51 | 7.13 |  | COCCNC(=O)N1CC[C@H](Oc2ccc(-c3ncnc(Nc4ccc(N5CCN(C6COC6)CC5)cc4)n3)cc2C#N)[C@H](F)C1 [Example 427, (3R,4S)-4-(2-cyano-4-(4-((4-(4-(oxetan-3-yl)piperazin-1-yl)phenyl)amino)-1,3,5-triazin-2-yl)phenoxy)-3-fluoro-N-(2-methoxyethyl)piperidine-1-carboxamide]
6.12 | 8.52 | 8.30 |  | C[C@H](O)C(=O)N1CC[C@H](Oc2ccc(-c3ncnc(Nc4cccc(C(C)(C)O)c4)n3)cc2C#N)[C@H](F)C1 [Example 486, 2-(((3R,4S)-3-fluoro-1-((S)-2-hydroxypropanoyl)piperidin-4-yl)oxy)-5-(4-((3-(2-hydroxypropan-2-yl)phenyl)amino)-1,3,5-triazin-2-yl)benzonitrile]
6.79 | 8.40 |  | 8.52 | N#Cc1cc(-c2ncnc(Nc3ccc(N4CCN(C5COC5)CC4)cc3)n2)ccc1O[C@H]1CCN(C(=O)C(O)CO)C[C@H]1F (stereo partly drawn) [Example 348, 2-(((3R,4S)-1-(2,3-dihydroxypropanoyl)-3-fluoropiperidin-4-yl)oxy)-5-(4-((4-(4-(oxetan-3-yl)piperazin-1-yl)phenyl)amino)-1,3,5-triazin-2-yl)benzonitrile]
6.32 | 8.70 |  | 9.00 | C[C@H](O)C(=O)N1CC[C@H](Oc2ccc(-c3ncnc(Nc4ccc(N5CCN(CC6COC6)CC5)cc4)n3)cc2C#N)[C@H](F)C1 [Example 308, 2-(((3R,4S)-3-fluoro-1-((S)-2-hydroxypropanoyl)piperidin-4-yl)oxy)-5-(4-((4-(4-(oxetan-3-ylmethyl)piperazin-1-yl)phenyl)amino)-1,3,5-triazin-2-yl)benzonitrile]
6.71 | 8.70 | 9.00 |  | C[C@H](O)C(=O)N1CC[C@H](Oc2ccc(-c3ncnc(Nc4ccc(N5CCN(C6COC6)[C@@H](CO)C5)cc4)n3)cc2C#N)C(F)(F)C1 [Example 469, 2-(((S)-3,3-difluoro-1-((S)-2-hydroxypropanoyl)piperidin-4-yl)oxy)-5-(4-((4-((R)-3-(hydroxymethyl)-4-(oxetan-3-yl)piperazin-1-yl)phenyl)amino)-1,3,5-triazin-2-yl)benzonitrile]
6.57 | 7.52 | 7.17 |  | Cn1cc(C(O)C(=O)N2CC[C@H](Oc3ccc(-c4ncnc(Nc5ccc(N6CCN(C7COC7)CC6)cc5)n4)cc3C#N)[C@H](F)C2)cn1 (stereo partly drawn) [Example 463, 2-(((3R,4S)-3-fluoro-1-(2-hydroxy-2-(1-methyl-1H-pyrazol-4-yl)acetyl)piperidin-4-yl)oxy)-5-(4-((4-(4-(oxetan-3-yl)piperazin-1-yl)phenyl)amino)-1,3,5-triazin-2-yl)benzonitrile]
≤ 6.00 | 8.52 | 8.52 |  | COCC(=O)N1CC[C@H](Oc2ccc(-c3ncnc(Nc4ccc(N5CCN(C6COC6)CC5)c(F)c4)n3)cc2C#N)[C@H](F)C1 [Example 402, 2-(((3R,4S)-3-fluoro-1-(2-methoxyacetyl)piperidin-4-yl)oxy)-5-(4-((3-fluoro-4-(4-(oxetan-3-yl)piperazin-1-yl)phenyl)amino)-1,3,5-triazin-2-yl)benzonitrile]
6.50 | 8.52 |  | 8.70 | N#Cc1cc(-c2ncnc(Nc3ccc(N4CCN(C5COC5)CC4)cc3)n2)ccc1O[C@H]1CCN(C(=O)C(F)F)C[C@H]1F [Example 288, 2-(((3R,4S)-1-(2,2-difluoroacetyl)-3-fluoropiperidin-4-yl)oxy)-5-(4-((4-(4-(oxetan-3-yl)piperazin-1-yl)phenyl)amino)-1,3,5-triazin-2-yl)benzonitrile]
7.26 | 8.70 |  | 9.00 | COc1cc(Nc2ncnc(-c3ccc(O[C@H]4CCN(C(=O)[C@H](C)O)C[C@H]4F)c(C#N)c3)n2)ccc1N1CCN(C2COC2)CC1 [Example 389, 2-(((3R,4S)-3-fluoro-1-((S)-2-hydroxypropanoyl)piperidin-4-yl)oxy)-5-(4-((3-methoxy-4-(4-(oxetan-3-yl)piperazin-1-yl)phenyl)amino)-1,3,5-triazin-2-yl)benzonitrile]
6.63 | 7.52 | 7.31 |  | N#Cc1cc(-c2ncnc(Nc3ccc(N4CCN(C5COC5)CC4)cc3)n2)ccc1O[C@H]1CCN(C(=O)C2(C#N)CC2)C[C@H]1F [Example 587, 2-(((3R,4S)-1-(1-cyanocyclopropanecarbonyl)-3-fluoropiperidin-4-yl)oxy)-5-(4-((4-(4-(oxetan-3-yl)piperazin-1-yl)phenyl)amino)-1,3,5-triazin-2-yl)benzonitrile]
6.25 | 8.70 |  | 9.00 | C[C@H](O)C(=O)N1CC[C@H](Oc2ccc(-c3ncnc(Nc4ccc(N5CCOC[C@H]5CO)cc4)n3)cc2C#N)[C@H](F)C1 [Example 383, 2-(((3R,4S)-3-fluoro-1-((S)-2-hydroxypropanoyl)piperidin-4-yl)oxy)-5-(4-((4-((R)-3-(hydroxymethyl)morpholino)phenyl)amino)-1,3,5-triazin-2-yl)benzonitrile]
